Structures can show the parent of a compound that is named as a salt.
Compound | melting point [°C]
CC1(O)CCN(c2cccc(-c3cnc4[nH]cc(C(=O)C(C)(C)C)c4n3)c2)C1 (stereo not drawn) [Example I-417, 1-{2-[3-(3-Hydroxy-3-methyl-pyrrolidin-1-yl)-phenyl]-5H-pyrrolo[2,3-b]pyrazin-7-yl}-2,2-dimethyl-propan-1-one] | 237 to 239
COC1CN(c2cccc(-c3cnc4[nH]cc(C(=O)C(C)(C)C)c4n3)c2)C1 [Example 111, 1-{2-[3-(3-Methoxy-azetidin-1-yl)-phenyl]-5H-pyrrolo[2,3-b]pyrazin-7-yl}-2,2-dimethyl-propan-1-one] | 196 to 198
CC(C)(C)C(=O)c1c[nH]c2ncc(-c3cccc(-n4cccn4)c3)nc12 [Example I-115, 2,2-Dimethyl-1-[2-(3-pyrazol-1-yl-phenyl)-5H-pyrrolo[2,3-b]pyrazin-7-yl]-propan-1-one] | 219.3 to 221.1
CC1(N)CCN(c2cccc(-c3cnc4[nH]cc(C(=O)C(C)(C)C)c4n3)c2)C1 (stereo not drawn) [Example 212, 1-{2-[3-(3-Amino-3-methyl-pyrrolidin-1-yl)-phenyl]-5H-pyrrolo[2,3-b]pyrazin-7-yl}-2,2-dimethyl-propan-1-one] | 216 to 218
CN(C)c1ccc(-c2cnc3[nH]cc(C(=O)C4(C)CCCCC4)c3n2)cc1 [Example 158, [2-(4-Dimethylamino-phenyl)-5H-pyrrolo[2,3-b]pyrazin-7-yl]-(1-methyl-cyclohexyl)-methanone] | 272 to 274
CCN(CC)c1ccc(-c2cnc3[nH]cc(C(=O)C4(C)CCCCC4)c3n2)cc1 [Example 173, [2-(4-Diethylamino-phenyl)-5H-pyrrolo[2,3-b]pyrazin-7-yl]-(1-methyl-cyclohexyl)-methanone] | 211 to 213
CC(C)(C)C(=O)c1c[nH]c2ncc(-c3cccc(NS(=O)(=O)c4ccccc4)c3)nc12 [Example 234, N-{3-[7-(2,2-Dimethyl-propionyl)-5H-pyrrolo[2,3-b]pyrazin-2-yl]-phenyl}-benzenesulfonamide] | 217 to 219
CC1(C(=O)c2c[nH]c3ncc(-c4cccc(N5CCOCC5)c4)nc23)CCCCC1 [Example 153, (1-Methyl-cyclohexyl)-[2-(3-morpholin-4-yl-phenyl)-5H-pyrrolo[2,3-b]pyrazin-7-yl]-methanone] | 208 to 209
CC(C)(C)C(=O)c1c[nH]c2ncc(-c3cccc(NCCS(C)(=O)=O)c3)nc12 [Example I-407, 1-{2-[3-(2-Methanesulfonyl-ethylamino)-phenyl]-5H-pyrrolo[2,3-b]pyrazin-7-yl}-2,2-dimethyl-propan-1-one] | 205 to 206
CC(C)(C)C(=O)c1c[nH]c2ncc(-c3cccc(N4CCC5(CCSC5)C4)c3)nc12 (stereo not drawn) [Example I-168, 2,2-Dimethyl-1-{2-[3-(2-thia-7-aza-spiro[4.4]non-7-yl)-phenyl]-5H-pyrrolo[2,3-b]pyrazin-7-yl}-propan-1-one] | 239 to 241
CCNc1cccc(-c2cnc3[nH]cc(C(=O)C(C)(C)C)c3n2)c1 [Example 227, 1-[2-(3-Ethylamino-phenyl)-5H-pyrrolo[2,3-b]pyrazin-7-yl]-2,2-dimethyl-propan-1-one] | 189 to 191
CC1(C(=O)c2c[nH]c3ncc(-c4ccc(N5CCCCC5)cc4)nc23)CCCCC1 [Example 174, (1-Methyl-cyclohexyl)-[2-(4-piperidin-1-yl-phenyl)-5H-pyrrolo[2,3-b]pyrazin-7-yl]-methanone] | 234 to 236
COCc1cccc(-c2cnc3[nH]cc(C(=O)C(C)(C)C)c3n2)c1 [Example I-130, 1-[2-(3-Methoxymethyl-phenyl)-5H-pyrrolo[2,3-b]pyrazin-7-yl]-2,2-dimethyl-propan-1-one] | 143 to 144
CC(C)(C)C(=O)c1c[nH]c2ncc(-c3cccc(-c4cn[nH]c4)c3)nc12 [Example I-369, 2,2-Dimethyl-1-{2-[3-(1H-pyrazol-4-yl)-phenyl]-5H-pyrrolo[2,3-b]pyrazin-7-yl}-propan-1-one] | > 300
CC(=O)N1CCN(c2cccc(-c3cnc4[nH]cc(C(=O)C(C)(C)C)c4n3)c2)CC1 [Example I-100, 1-{2-[3-(4-Acetyl-piperazin-1-yl)-phenyl]-5H-pyrrolo[2,3-b]pyrazin-7-yl}-2,2-dimethyl-propan-1-one] | 238 to 239
COc1ccccc1-c1cnc2[nH]cc(C(=O)C(C)(C)C)c2n1 [Example I-133, 1-[2-(2-Methoxy-phenyl)-5H-pyrrolo[2,3-b]pyrazin-7-yl]-2,2-dimethyl-propan-1-one] | 199.5 to 200.7
COc1ccc(COc2cccc(-c3cnc4[nH]cc(C(=O)NC(C)C)c4n3)c2)cc1 [Example I-229, 2-[3-(4-Methoxy-benzyloxy)-phenyl]-5H-pyrrolo[2,3-b]pyrazine-7-carboxylic acid isopropylamide] | 215 to 216
CC1(C(=O)c2c[nH]c3ncc(-c4cccc(N5CCN(C(=O)C6CCNCC6)CC5)c4)nc23)CCCCC1 [Example 180, (1-Methyl-cyclohexyl)-(2-{3-[4-(piperidine-4-carbonyl)-piperazin-1-yl]-phenyl}-5H-pyrrolo[2,3-b]pyrazin-7-yl)-methanone] | > 300

Compound | melting point [°C]
COc1cc(-c2cnc3[nH]cc(C(=O)C(C)(C)OC)c3n2)cc(OC)c1OC [Example 131, 2-Methoxy-2-methyl-1-[2-(3,4,5-trimethoxy-phenyl)-5H-pyrrolo[2,3-b]pyrazin-7-yl]-propan-1-one] | 237.8 to 239.1
CNC(=O)c1cccc(-c2cnc3[nH]cc(C(=O)C(C)(C)C)c3n2)c1 [Example I-129, 3-[7-(2,2-Dimethyl-propionyl)-5H-pyrrolo[2,3-b]pyrazin-2-yl]-N-methyl-benzamide] | 257 to 258
CC(C)(C)C(=O)c1c[nH]c2ncc(-c3cccc(NS(=O)(=O)c4ccc(N)cc4)c3)nc12 [Example 235, 4-Amino-N-{3-[7-(2,2-dimethyl-propionyl)-5H-pyrrolo[2,3-b]pyrazin-2-yl]-phenyl}-benzenesulfonamide] | 285 to 286
CC(C)(C)C(=O)c1c[nH]c2ncc(-c3cccc(N)c3)nc12 [Example 226, 1-[2-(3-Amino-phenyl)-5H-pyrrolo[2,3-b]pyrazin-7-yl]-2,2-dimethyl-propan-1-one] | 239 to 241
COc1cc(-c2cnc3[nH]cc(C(=O)NCC(C)OC)c3n2)cc(OC)c1OC (stereo not drawn) (as salt: hydrochloride) [Example 24, 2-(3,4,5-Trimethoxy-phenyl)-5H-pyrrolo[2,3-b]pyrazine-7-carboxylic acid (2-methoxy-propyl)-amide] | 199 to 200
CC1(C(=O)c2c[nH]c3ncc(-c4cccc(CCCO)c4)nc23)CCCCC1 [Example 156, {2-[3-(3-Hydroxy-propyl)-phenyl]-5H-pyrrolo[2,3-b]pyrazin-7-yl}-(1-methyl-cyclohexyl)-methanone] | 80 to 83
CC1(C(=O)c2c[nH]c3ncc(-c4cccc(N5CCCC5)c4)nc23)CCCCCC1 [Example 160, (1-Methyl-cycloheptyl)-[2-(3-pyrrolidin-1-yl-phenyl)-5H-pyrrolo[2,3-b]pyrazin-7-yl]-methanone] | 192 to 193
CC(C)(C)C(=O)c1c[nH]c2ncc(-c3cccc(NC4=NCCN4)c3)nc12 [Example 236, 1-{2-[3-(4,5-Dihydro-1H-imidazol-2-ylamino)-phenyl]-5H-pyrrolo[2,3-b]pyrazin-7-yl}-2,2-dimethyl-propan-1-one] | 228 to 230
CC(C)(C)C(=O)c1c[nH]c2ncc(-c3cccc(N4CCNCC4)c3)nc12 [Example I-46, 2,2-Dimethyl-1-[2-(3-piperazin-1-yl-phenyl)-5H-pyrrolo[2,3-b]pyrazin-7-yl]-propan-1-one] | 216 to 222
CCOC(C)(OCC)C(=O)c1c[nH]c2ncc(-c3cc(OC)c(OC)c(OC)c3)nc12 [Example 72, 2,2-Diethoxy-1-[2-(3,4,5-trimethoxy-phenyl)-5H-pyrrolo[2,3-b]pyrazin-7-yl]-propan-1-one] | 198.2 to 201
CC(C)(C)C(=O)c1c[nH]c2ncc(-c3cccc(CN)c3)nc12 [Example 149, 1-[2-(3-Aminomethyl-phenyl)-5H-pyrrolo[2,3-b]pyrazin-7-yl]-2,2-dimethyl-propan-1-one] | 176 to 178
CC(C)(C)C(=O)c1c[nH]c2ncc(-c3cccc(-c4ccn[nH]4)c3)nc12 [Example I-126, 2,2-Dimethyl-1-{2-[3-(2H-pyrazol-3-yl)-phenyl]-5H-pyrrolo[2,3-b]pyrazin-7-yl}-propan-1-one] | 277 to 278
Cc1nnc(-c2cccc(-c3cnc4[nH]cc(C(=O)C(C)(C)C)c4n3)c2)o1 [Example I-325, 2,2-Dimethyl-1-{2-[3-(5-methyl-[1,3,4]oxadiazol-2-yl)-phenyl]-5H-pyrrolo[2,3-b]pyrazin-7-yl}-propan-1-one] | 260.9 to 264.4
CCCOc1cccc(-c2cnc3[nH]cc(C(=O)C(C)(C)C)c3n2)c1 [Example 139, 2,2-Dimethyl-1-[2-(3-propoxy-phenyl)-5H-pyrrolo[2,3-b]pyrazin-7-yl]-propan-1-one] | 179 to 180
CC(C)COc1cccc(-c2cnc3[nH]cc(C(=O)C(C)(C)C)c3n2)c1 [Example 137, 1-[2-(3-Isobutoxy-phenyl)-5H-pyrrolo[2,3-b]pyrazin-7-yl]-2,2-dimethyl-propan-1-one] | 177 to 178
CNS(=O)(=O)c1cccc(-c2cnc3[nH]cc(C(=O)C(C)(C)C)c3n2)c1 [Example 141, 3-[7-(2,2-Dimethyl-propionyl)-5H-pyrrolo[2,3-b]pyrazin-2-yl]-N-methyl-benzenesulfonamide] | 245 to 247
CC(C)(C)C(=O)c1c[nH]c2ncc(-c3cccc(OCCN4CCOCC4)c3)nc12 [Example I-41, 2,2-Dimethyl-1-{2-[3-(2-morpholin-4-yl-ethoxy)-phenyl]-5H-pyrrolo[2,3-b]pyrazin-7-yl}-propan-1-one] | 152.9 to 154.7
CC(C)(C)OCc1cccc(-c2cnc3[nH]cc(C(=O)C(C)(C)C)c3n2)c1 [Example I-336, 1-[2-(3-tert-Butoxymethyl-phenyl)-5H-pyrrolo[2,3-b]pyrazin-7-yl]-2,2-dimethyl-propan-1-one] | 202 to 203

— patent US8008298B2, “Pyrrolopyrazine kinase inhibitors” (Roche Palo Alto, priority 2008, dated 2011)
